Results: US11229602B2, “Formulations for treating bladder cancer” (priority 2016, dated 2022)
“And” between values parts separate entries of the source, which are not always exact repeats. Equal values may be shown once. Read-outs that look alike come from different tables or passages of the source.

Columns and labels:
[1] = test system: human bladder epithelial carcinoma cell-line T24 (ATCC HTB-4); assay: Sulforhodamine B (SRB) assay, T24 cells; type: cell-based; conditions: 72 h treatment
Experimental: (§1) A sulforhodamine B (SRB) assay-based approach was employed to determine the inhibitory concentration (IC)50 of paclitaxel formulations PLIP-003, PLIP-006, PLIP-021, and PLIP-023 against the human bladder epithelial carcinoma cell-lines T24 (ATCC® HTB-4™), 5637 (ATCC® HTB-9™) and HT-1376 (ATCC® CRL-1472™). For use in the assays, the paclitaxel formulations were redispersed in normal saline to a concentration of 2-5 mg/mL paclitaxel. The dispersed formulations formed clear solutions. Pure, unformulated, paclitaxel solution ([6 mg/100 μL] in DMSO) was used as a control formulation.
(§2) Cells were seeded onto 96-well plates at a density of 5×10^3 cells/well and cultured for 24 h at 37° C. and 5% CO2. The dispersed paclitaxel formulations and pure drug controls were added to the media of the plated cell cultures. […] Protein-bound SRB was detected by adding 100 μl 10 mM Tris base solution to each well, and allowing 5 to 10 minutes for Tris solution to solubilize SRB. The plates were read using a microplate reader at an absorbance of 565 nm. […]
(§3) Cells were seeded onto 96-well plates at a density of 5×10^3 cells/well and cultured for 24 h at 37° C. and 5% CO2. […] Protein-bound SRB was detected by adding 100 μl 10 mM Tris base solution to each well, and allowing 5 to 10 minutes for Tris solution to solubilize SRB. The plates were read using a microplate reader at an absorbance of 565 nm.

[2] = test system: human bladder epithelial carcinoma cell-line 5637 (ATCC HTB-9); assay: Sulforhodamine B (SRB) assay, 5637 cells; type: cell-based; conditions: 72 h treatment
Experimental: as §1, §2, §3

[3] = test system: KU-7-GFP human bladder cancer; assay: KU-7-GFP human bladder cancer orthotopic mouse model, intravesical instillation; type: in vivo, mice
Experimental: An orthotopic mouse model was utilized to evaluate a proliposomal formulation of paclitaxel. The bladder cancer cell line KU7/GFP clone 6 was used for these studies. The KU7/GFP clone 6 is stably transfected with the green-fluorescent protein, and these cell lines were used for all in vivo studies. The KU7/GFP clone 6 cell lines are described in Watanabe et al. The cells were grown in modified minimum essential medium supplemented with 10% FCS and incubated at 37° C. in 5% CO2. Tumors generated from KU7/GFP cells were generated […]. The tumors were implanted into the bladder of female mice. […] The foregoing formulations and saline were administered at day 0, day 7, and day 14 post-tumor implantation.
KU-7-GFP human bladder cancer orthotopic MetaMouse® model: The human bladder cancer cell line KU-7 expressing GFP was from the AntiCancer Inc. cell-line bank. The animals were transplanted by intravesical instillation using the KU-7-GFP bladder cancer cells. The animals were anesthetized with a mixture of ketamine, acepromazine and xylazine. The surgical area was sterilized using iodine and alcohol. After proper exposure of the bladder following a lower midline abdominal incision, the bladder was catheterized with a 24-G angiocatheter, drained and injured by a scratch with a needle in the bladder lining. KU-7-GFP (100 μl 2×10^6) cells were instilled into the bladder and a purse string was placed to occlude the urethra in order for the cells to be retained for 1 hour. The bladder was then returned to the abdominal cavity. The incision in the abdominal wall was closed with a 6-0 surgical suture in one layer. The animals were kept under isoflurane anesthesia during surgery. All procedures of the operation described above were performed under a 7× magnification microscope (Olympus). Animals were kept in a barrier facility under HEPA filtration.
On day 7 after tumor cell implantation, fifty animals were randomly divided into five groups (each treatment group contained n=10 mice) on day 7 after tumor implantation. Treatments in all groups for all mice were initiated on the same day, which was considered Study Day 0. Freshly reconstituted formulation (50 μL) was instilled intravesically using a 24 G/¾″ IV catheter, and the urethra was occluded using a purse string knot. The formulation was held in the bladder for a period of 1 h. After 1 h, the purse string was cut open, and the bladder was allowed to void naturally. The same procedure was followed on days 0, 7, 14 […].
In vitro human bladder cancer cell lines (T24, KU7) were used to assess IC50 values. In vivo studies were carried out in nude mice inoculated with KU7-GFP cell-lines. After KU7 bladder tumor inoculation, weekly (×3) intravesical instillations (3 groups: PLIP; PTX/DMSO or PTX/Nab; or saline) were delivered and tumor growth measured. Pharmacokinetic studies were carried out in rat species. A GLP compliant acute-expanded toxicology/toxicokinetics study in rat species was also performed.

[4] = test system: human bladder epithelial carcinoma cell-line HT-1376 (ATCC CRL-1472); assay: Sulforhodamine B (SRB) assay, HT-1376 cells; type: cell-based; conditions: HT1376; cisplatin formulations; 72 h treatment
Experimental: as §1, §2, §3

[5] = Redispersion / dissolution in normal saline; type: physicochemical
Experimental: as §1
A sulforhodamine B (SRB) assay-based approach was employed to determine the inhibitory concentration IC50 of cisplatin formulations PLIC-002 and PLIC-009 against the human bladder carcinoma epithelial cell-lines T24 (ATCC® HTB-4™), 5637 (ATCC® HTB-9™) and HT-1376 (ATCC® CRL-1472™). For use in the assays, the cisplatin formulations were redispersed in normal saline to a concentration 2 mg/mL cisplatin. The redispersed formulations formed clear solutions. Pure cisplatin solution 1 mg/mL in normal saline (unformulated) was used as a control. Higher concentrations of pure cisplatin were not used because cisplatin will not form a clear solution above 1 mg/mL in normal saline.

[6] = 5.0 mg/kg, nude mice KU7-GFP, weekly intravesical instillations
[7] = 5.0 mg/kg, nude mice KU7-GFP, weekly intravesical instillations, * p < 0.05 vs saline

| SMILES | IC50 ([1]; Homo sapiens, T-24, paclitaxel formulations, read-out: IC50) [µg/mL] | IC50 ([2]; Homo sapiens, paclitaxel formulations, read-out: IC50) [µg/mL] | Bladder Size [3, 6] [mm^2] | Tumor Size [3, 6] [mm^2] | % Bladder Overtaken by Tumor [3, 7] [%*] | % Complete Response [3, 7] | Final tumor area, measured by fluorescent method ([3]; Groups 3 and 4, title says Study Design 2, two weeks, five groups as in Study Design 1 (5 mg/kg once a week), individual mice, listed as PTX in DMSO, 5 mg/kg) | Final tumor area, measured by fluorescent method, mean ([3]; Groups 3 and 4, title says Study Design 2, two weeks, five groups as in Study Design 1 (5 mg/kg once a week), mean) [mm^2] | IC50 ([1]; cisplatin formulations) [µg/mL] | IC50 ([2]; cisplatin formulations) [µg/mL] | IC50 [4] [µg/mL] | highest concentration forming a clear solution in normal saline [5] [mg/mL] |
| --- | --- | --- | --- | --- | --- | --- | --- | --- | --- | --- | --- | --- |
| CC(=O)O[C@H]1C(=O)[C@@]2(C)[C@H]([C@H](OC(=O)c3ccccc3)[C@]3(O)C[C@H](OC(=O)[C@H](O)[C@@H](NC(=O)c4ccccc4)c4ccccc4)C(C)=C1C3(C)C)[C@]1(OC(C)=O)CO[C@@H]1C[C@@H]2O [Paclitaxel in DMSO, Paclitaxel] | < 0.1 | < 0.1 | 13 | 0.05 | 10 | 25% (1/4) | 16.39 mm^2 and 5.37 mm^2 and 15.96 mm^2 | 12.58 |  |  |  |  |
| N.N.[Cl][Pt][Cl] [Pure drug, Cis-diamminedichloroplatinum(II)] |  |  |  |  |  |  |  |  | 0.788 | 0.441 | 1.11 | ≤ 1 |
